Experiments:
[1] = tested on: Arg; assay: Arg mRNA (RT-PCR) and protein (Western blot) levels; format: cell-based, human; conditions: 40 μM α-TEA
Experimental: Arg (ABL2) expression data obtained from gene array analysis was further confirmed by RT-PCR and Western blot analyses. […] Unlike MDA-MB-435 cells, the MCF-7 cell line is an estrogen-receptor positive/estrogen responsive human breast cancer line (Klotz et al., 1995). However, both cell lines were induced to undergo apoptosis by α-TEA as assessed by PARP cleavage (FIG. 1B).
Whole-cell protein extracts were prepared as described previously (Yu et al., 1999), and 50 μg of protein was loaded per lane, separated using SDS-PAGE on a 10-15% gel under reducing conditions, and electroblotted onto a nitrocellulose membrane ([…] Optitran BA-S-supported nitrocellulose; Schleicher and Schuell, Keene, N.H.). Equal loading was verified using GAPDH antibody. Primary rabbit antibodies with specificity for PARP and primary goat antibody with specificity for Arg were purchased from Santa Cruz Biotechnology (Santa Cruz, Calif.). Horseradish peroxidase conjugated goat anti-rabbit or horseradish goat anti-mouse secondary antibody was purchased from Jackson Immunoresearch Laboratory (West Grove, Pa.). Horseradish peroxidase-conjugated donkey anti-goat serum was purchased from Santa Cruz Biotechnology. Immune complexes were visualized using enhanced chemiluminescence detection (Pierce Chemical Co., Rockford, Ill.). Fold differences in level of chemiluminescence were determined by densitometric analyses.
Total RNA was isolated from cells using RNeasy Protect Mini kit (Qiagen, Valencia, Calif.) according to manufacturer's instruction. Reverse transcription was performed as described above except using 15 μg of total RNA as template. […]
The double stranded small interfering RNA oligonucleotides specific for Arg and negative control siRNA (with no known homology to mammalian genes) were purchased from Ambion (siRNA ID #1478, Austin, Tex.). […] The cells were collected, lysed and the lysates were analyzed by immunoblotting (Western blot).

[2] = tested on: LNCaP cells; assay: Apoptosis by DAPI staining, LNCaP; format: cell-based, human
Experimental: Cells were plated at 2×10^6 in 100 mm cell culture plates, cultured overnight and washed with serum free media before transfection. Plasmids (0.7 μg or 4.2 of μg) or empty vector (pcDNA3) were mixed with 50 μl or 300 μl serum free media and 4 μl or 24 μl PLUS reagent (Invitrogen, CA) and incubated for 15 min at room temperature. Next 2 μl or 12 μl of Lipofectamine reagent (Invitrogen, CA) in 50 μl or 300 μl serum free media were added and the mixture incubated for another 15 min before adding to the cells in 0.5 ml or 5 ml serum free media. Cells were incubated with transfection reagents for 3 h and the growth media containing 2×FBS was added to the cells. Transfected cells were cultured overnight before α-TEA treatment. Transfection efficiency was determined to be 70% using GFP expressing plasmid.
Assessment of apoptosis based on nuclear morphology using 4′, 6-diamidino-2-phenylindole dihydrochloride (DAPI; Boehringer Mannheim Corp. Indianapolis, Ind.) has been described previously (Yu et al., 2003; Israel et al., 2000). Briefly, 1.5×10^5/well LNCaP or PC-3-GFP cells were plated in 12-well tissue culture plates and cultured overnight to allow cells to attach. On the next day, cells were treated with various concentrations of α-TEA and incubated for various time periods. At the end of treatments, cells were collected, washed with PBS, stained with 25 μl of 2 μg/ml DAPI, and viewed under a fluorescent microscope (model ICM 405 with a model 487701 filter, Zeiss). Cells which contained clearly condensed chromatin or fragmented nuclei were scored as apoptotic cells. ≧500 cells were counted in each sample. Apoptotic data are presented as percentage of apoptotic cells±S.D. for three independent experiments.
FOXO1 siRNA used in the study was purchased from Santa Cruz (Santa Cruz, Calif.). […] Transfection of human prostate cancer cells with FOXO1 siRNA or negative control siRNA was performed in 100 mm cell culture dishes at a density of 2×10^6 cells/dish using Lipofectamine 2000 (Invitrogen, Carlsbad, Calif.) and 300 pmol of siRNA duplex, resulting in a final siRNA concentration of 30 nM. siRNA transfected cells were incubated for 48-72 h prior to α-TEA treatment.

Cc1c(C)c2c(c(C)c1OCC(=O)O)CC[C@@](C)(CCC[C@H](C)CCC[C@H](C)CCCC(C)C)O2 [α-TEA]
up-regulation of Arg mRNA and protein levels ([1]; MCF-7 cells): not in MCF-7 cells
peak Arg mRNA levels, fold of the vehicle (VEH) control ([1]; MDA-MB-435 cells, 24 h, RT-PCR densitometry): 1.5 fold
peak Arg protein levels, fold of the VEH control ([1]; MDA-MB-435 cells, 24 h, Western densitometry): 2.9 fold
decrease in percentage of apoptotic cells in cells expressing constitutively active Akt1 vs empty vector ([2]; 15 μM α-TEA): 21%
decrease in percentage of apoptotic cells in cells expressing constitutively active Akt1 vs empty vector ([2]; 20 μM α-TEA): 24%
decrease in percentage of apoptotic cells in cells expressing constitutively active Akt2 vs empty vector ([2]; 20 μM α-TEA): 10%
α-TEA-induced apoptosis on overexpression of wild type or constitutively active FOXO1 ([2]; 40 μM α-TEA 15 h, P<0.009): increased
